In brackets after ≈: the same amount, converted by molar mass. Like-named read-outs stand apart in the source and are kept apart here.
Key:
[1] = tested on: Escherichia coli JW5503-1 (ΔtolC); experiment: MIC against Gram-negative pathogens (efflux pump knockout); format: cell-based
Method: (§1) Bacteria were cultured in cation-adjusted Mueller Hinton Broth (for strains in Tables 1 and 4) or Brain Heart Infusion broth (for Enterococcus faecium) or Tryptic Soy Broth (all other bacteria) in a 96-well plate at 37° C. for at least 20 hours. The MIC was classified as the lowest concentration where no visual growth of bacteria was observed. The minimum bactericidal concentration (MBC) was tested by spotting 4 μL from wells with no growth onto Tryptic Soy Agar (TSA) plates. Plates were incubated at 37° C. for at least 18 hours before recording the MBC.

[2] = tested on: Escherichia coli BW25113; experiment: MIC against Gram-negative pathogens; format: cell-based
Method: as §1

[3] = tested on: Clostridium difficile ATCC 43255; experiment: Clostridium difficile inhibition analysis; format: cell-based; settings: Table 7, C. difficile ATCC 43255
[4] = tested on: C. difficile NR-32891 (P13); experiment: Clostridium difficile inhibition analysis; format: cell-based; settings: Table 7, C. difficile NR-32891 (P13)
[5] = tested on: C. difficile NR-32904 (P30); experiment: Clostridium difficile inhibition analysis; format: cell-based; settings: Table 7, C. difficile NR-32904 (P30)
[6] = tested on: C. difficile NR-13432 (isolate 6); experiment: Clostridium difficile inhibition analysis; format: cell-based; settings: Table 7, C. difficile NR-13432 (isolate 6)
[7] = tested on: L. monocytogenes; experiment: MIC (Table 5, strain not given); format: cell-based; settings: Listeria monocytogenes; L. monocytogenes (Table 5)
Method: as §1

[8] = tested on: VRE; experiment: MIC (Table 5, strain not given); format: cell-based; settings: Enterococcus; VRE (Table 5)
Method: as §1

[9] = tested on: E. faecalis; experiment: MIC (Table 5, strain not given); format: cell-based; settings: Enterococcus faecalis; E. faecalis (Table 5)
Method: as §1

[10] = tested on: S. aureus; experiment: MIC (Table 5, strain not given); format: cell-based; settings: Staphylococcus aureus; S. aureus (Table 5)
Method: as §1

[11] = tested on: C. difficile NR-13435 (isolate 9); experiment: Clostridium difficile inhibition analysis; format: cell-based; settings: Table 7, C. difficile NR-13435 (isolate 9)
[12] = tested on: C. difficile NR-32895 (P19); experiment: Clostridium difficile inhibition analysis; format: cell-based; settings: Table 7, C. difficile NR-32895 (P19)
[13] = tested on: C. difficile NR-32883 (P2); experiment: Clostridium difficile inhibition analysis; format: cell-based; settings: Table 7, C. difficile NR-32883 (P2)
[14] = tested on: MRSA ATCC 33592; experiment: MIC, broth microdilution; format: cell-based; settings: Staphylococcus aureus; MRSA ATCC 33592; read-out: MIC
Method: as §1

[15] = tested on: MRSA NRS123 (USA400); experiment: MIC and MBC; format: cell-based; settings: Staphylococcus aureus, MRSA NRS123 (USA400)
Method: as §1

[16] = tested on: MRSA NRS384 (USA300); experiment: MIC and MBC; format: cell-based; settings: Staphylococcus aureus, MRSA NRS384 (USA300)
Method: as §1

[17] = tested on: MRSA NRS385 (USA500); experiment: MIC and MBC; format: cell-based; settings: Staphylococcus aureus, MRSA NRS385 (USA500)
Method: as §1

[18] = tested on: MRSA NRS387 (USA800); experiment: MIC and MBC; format: cell-based; settings: Staphylococcus aureus, MRSA NRS387 (USA800)
Method: as §1

[19] = tested on: E. faecium ATCC; experiment: MIC and MBC; format: cell-based; settings: Enterococcus faecium, E. faecium ATCC
Method: as §1

[20] = tested on: MRSA NRS386 (USA700); experiment: MIC and MBC; format: cell-based; settings: Staphylococcus aureus, MRSA NRS386 (USA700)
Method: as §1

[21] = tested on: VRSA VRS12; experiment: MIC and MBC; format: cell-based, S. aureus; settings: Staphylococcus aureus, VRSA VRS12
Method: as §1

[22] = tested on: VISA NRS1; experiment: MIC and MBC; format: cell-based, S. aureus; settings: Staphylococcus aureus, VISA NRS1
Method: as §1

[23] = tested on: MRSA USA300; experiment: Time-kill analysis; format: cell-based, Staphylococcus aureus
Method: The time-kill analysis was performed as previously described^29. […] Aliquots (100 μL) were collected from each treatment after 0, 2, 4, 8, 12, and 24 hours of incubation at 37° C. and subsequently serially diluted in phosphate-buffered saline (PBS). Bacteria were then transferred to TSA plates and incubated at 37° C. for 18-20 hours before viable CFU/mL was determined.

[24] = tested on: MRSA NRS119; experiment: MIC and MBC; format: cell-based, Staphylococcus aureus; settings: MRSA NRS119
Method: as §1

CC[C@H]1OC(=O)[C@H](C)[C@@H](O[C@H]2C[C@@](C)(OC)[C@@H](O)[C@H](C)O2)[C@H](C)[C@@H](O[C@@H]2O[C@H](C)C[C@H](N(C)C)[C@H]2O)[C@](C)(O)C[C@@H](C)C(=O)[C@H](C)[C@@H](O)[C@]1(C)O [Erythromycin]
MIC [1]: ≤ 1 mg/L | MIC ([2]; Escherichia coli BW25113 (wild-type), read-out: MIC): 32 mg/L (≈ 43.6 µM)

C[C@@H]1C[C@H](C)CN(S(=O)(=O)c2ccc(C(=O)Nc3nnc(-c4ccc(C(F)(F)F)cc4)o3)cc2)C1 [HSGN-94, 4-(((3S,5R)-3,5-dimethylpiperidin-1-yl)sulfonyl)-N-(5-(4-(trifluoromethyl)phenyl)-1,3,4-oxadiazol-2-yl)benzamide]
Antibacterial activity [3]: 0.06 | Antibacterial activity [4]: 0.125 | Antibacterial activity [5]: 0.125 | Antibacterial activity [6]: 0.06 | MIC [7]: 0.5 mg/L (≈ 0.983 µM) | MIC [8]: 1 mg/L (≈ 1.97 µM) | MIC [9]: 2 mg/L (≈ 3.93 µM) | MIC [10]: 0.25 mg/L (≈ 0.492 µM) | Antibacterial activity [11]: 0.06 | Antibacterial activity [12]: 0.06 | Antibacterial activity [13]: 0.06 | MIC [14]: 0.25 mg/L (≈ 0.492 µM)

CC(=O)NC[C@H]1CN(c2ccc(N3CCOCC3)c(F)c2)C(=O)O1 [Linezolid]
MIC [1]: 8 mg/L (≈ 23.7 µM) | MBC ([15]; read-out: MBC): 64 mg/L (≈ 190 µM) | MIC ([15]; read-out: MIC): ≤ 1 mg/L | MBC ([16]; read-out: MBC): 64 mg/L (≈ 190 µM) | MIC ([16]; read-out: MIC): ≤ 1 mg/L | MBC ([17]; read-out: MBC): 2 mg/L (≈ 5.93 µM) | MIC ([17]; read-out: MIC): ≤ 1 mg/L | MBC ([18]; read-out: MBC): 128 mg/L (≈ 379 µM) | MIC ([18]; read-out: MIC): ≤ 1 mg/L | MBC ([19]; read-out: MBC): 64 mg/L (≈ 190 µM) | MIC ([19]; read-out: MIC): ≤ 1 mg/L | MBC ([20]; read-out: MBC): 128 mg/L (≈ 379 µM) | MIC ([20]; read-out: MIC): ≤ 1 mg/L | MBC ([21]; read-out: MBC): 32 mg/L (≈ 94.9 µM) | MIC ([21]; read-out: MIC): ≤ 1 mg/L | MBC ([22]; read-out: MBC): 1 mg/L (≈ 2.96 µM) | MIC ([22]; read-out: MIC): ≤ 1 mg/L | reduction in MRSA USA300 (time-kill) ([23]; 3×MIC, after a 24-hour incubation period): 2.16 log10 | in vitro effect against MRSA USA300 ([23]; time-kill analysis and MBC): bacteriostatic | MIC ([2]; Escherichia coli, BW25113): > 128 mg/L | MIC [24]: inactive | MBC ([24]; Staphylococcus aureus, read-out: MBC): 32 mg/L (≈ 94.9 µM) | MIC ([24]; Staphylococcus aureus, read-out: MIC): 32 mg/L (≈ 94.9 µM)
